Measurements as given in BigSolDB 2.1.

Cc1cc(=O)oc2cc(N)ccc12
solubility (mole fraction)
Conditions	278.15 K	283.15 K	288.15 K	293.15 K	298.15 K	303.15 K	308.15 K	313.15 K	318.15 K	323.15 K
in DMF	0.0579	0.0725	0.0902	0.108	0.131	0.156	0.189	0.219	0.251	0.292
in ethanol	0.000941	0.00101	0.00117	0.00123	0.00134	0.00161	0.00177	0.00214	0.00233	0.00262
in ethylene glycol	0.000384	0.000432	0.000531	0.000663	0.000812	0.000974	0.00112	0.0013	0.00145	0.00163
in isopropanol	0.00103	0.00114	0.00127	0.00152	0.00173	0.00188	0.00208	0.00237	0.00261	0.00294
in water	1.07e-05	1.38e-05	1.74e-05	2.18e-05	2.75e-05	3.41e-05	4.18e-05	5.14e-05	6.27e-05	7.57e-05
